Results as given in US6461997B1, “Triazole sulfones having herbicidal activity” (Monsanto Technology LLC, priority 1999, dated 2002).

The compounds below were run on ECHCG (barnyardgrass) (assay: Pre-emergence herbicidal activity, warm season). Details: Echinochloa crus-galli; pre-emergence application, 10 g/ha; read-out: Percent inhibition, weed ECHCG.
Format: in vivo, Echinochloa crus-galli
Outline: (§1)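 GR80 values derive from percent inhibition relative to untreated plants, read roughly 14 days after sowing and pre-emergence soil-surface treatment (compound in 50:50 acetone/water; rates typically 10, 30, 100, 300 g/ha). Warm-season weeds grew at 30/21° C day/night, cool-season ones at 18/13° C; an asterisk marks activity without reaching 80% at the highest rate.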

Structure (SMILES) | inhibition at 10 g/ha
CCN(CC)C(=O)n1cnc(S(=O)(=O)C(F)(F)Br)n1 [Example 1, 3-(bromodifluoromethylsulfonyl)-1-(N,N-diethylcarbamoyl)-1,2,4-triazole] | 0%

Same assay, conditions: Echinochloa crus-galli; pre-emergence application, 30 g/ha; read-out: Percent inhibition, weed ECHCG

Structure (SMILES) | inhibition at 30 g/ha
CCN(CC)C(=O)n1cnc(S(=O)(=O)C(F)(F)Br)n1 [Example 1, 3-(bromodifluoromethylsulfonyl)-1-(N,N-diethylcarbamoyl)-1,2,4-triazole] | 10%

Same assay, conditions: Echinochloa crus-galli; pre-emergence application, 100 g/ha; read-out: Percent inhibition, weed ECHCG

Structure (SMILES) | inhibition at 100 g/ha
CCN(CC)C(=O)n1cnc(S(=O)(=O)C(F)(F)Br)n1 [Example 1, 3-(bromodifluoromethylsulfonyl)-1-(N,N-diethylcarbamoyl)-1,2,4-triazole] | 45%

Same assay, conditions: Echinochloa crus-galli; pre-emergence application, 300 g/ha; read-out: Percent inhibition, weed ECHCG

Structure (SMILES) | inhibition at 300 g/ha
CCN(CC)C(=O)n1cnc(S(=O)(=O)C(F)(F)Br)n1 [Example 1, 3-(bromodifluoromethylsulfonyl)-1-(N,N-diethylcarbamoyl)-1,2,4-triazole] | 80%

Same assay, conditions: Echinochloa crus-galli; pre-emergence application, 900 g/ha; read-out: Percent inhibition, weed ECHCG

Structure (SMILES) | inhibition at 900 g/ha
CCN(CC)C(=O)n1cnc(S(=O)(=O)C(F)(F)Br)n1 [Example 1, 3-(bromodifluoromethylsulfonyl)-1-(N,N-diethylcarbamoyl)-1,2,4-triazole] | 95%

Same assay, conditions: GR80 = lowest tested rate (300, 100, 30, 10 g/ha) with 80% or greater inhibition; approx. 14 days after treating; 30/21° C.

Structure (SMILES) | Pre-emergence activity (GR80) ECHCG
CCN(CC)C(=O)n1cnc(S(=O)(=O)C(F)(F)Br)n1 [Example 1, 3-(bromodifluoromethylsulfonyl)-1-(N,N-diethylcarbamoyl)-1,2,4-triazole] | 30 g/ha
C=C(C)CC(F)(F)S(=O)(=O)c1ncn(C(=O)N(CC)CC)n1 [Example 18] | 100 g/ha

What follows are compounds tested on STEME (common chickweed) (assay: Pre-emergence herbicidal activity, cool season). Details: lowest tested rate with 80% or greater inhibition; rates 300, 100, 30, 10 g/ha; about 14 days.
Format: in vivo, Stellaria media
Outline: as §1

Structure (SMILES) | Pre-emergence activity GR80, STEME
CCN(CC)C(=O)n1cnc(S(=O)(=O)C(F)(F)Br)n1 [Example 1, 3-(bromodifluoromethylsulfonyl)-1-(N,N-diethylcarbamoyl)-1,2,4-triazole] | 100 g/ha
C=C(C)CC(F)(F)S(=O)(=O)c1ncn(C(=O)N(CC)CC)n1 [Example 18] | 30 g/ha

These compounds were tested on CHEAL (common lambsquarters) (assay: Pre-emergence herbicidal activity, warm season). Details: GR80 = lowest tested rate (300, 100, 30, 10 g/ha) with 80% or greater inhibition; approx. 14 days after treating; 30/21° C.
Format: in vivo, Chenopodium album
Outline: as §1

Structure (SMILES) | Pre-emergence activity (GR80) CHEAL
CCN(CC)C(=O)n1cnc(S(=O)(=O)C(F)(F)Br)n1 [Example 1, 3-(bromodifluoromethylsulfonyl)-1-(N,N-diethylcarbamoyl)-1,2,4-triazole] | 300 g/ha
C=C(C)CC(F)(F)S(=O)(=O)c1ncn(C(=O)N(CC)CC)n1 [Example 18] | 300 g/ha

The compounds below were run on AVEFA (wild oat) (assay: Post-emergence herbicidal activity, cool season). Details: abraded plants sprayed at 300, 100, 30 and 10 g/ha; about 14 days after treatment.
Format: in vivo, Avena fatua
Outline: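 Greenhouse test on sand-abraded seedlings sprayed 9 to 14 days after planting at 300, 100, 30 and 10 g/ha; GR80 from percent inhibition versus controls at approximately 14 days.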

Structure (SMILES) | Post-emergence activity GR80, AVEFA
CCN(CC)C(=O)n1cnc(S(=O)(=O)C(F)(F)Br)n1 [Example 1, 3-(bromodifluoromethylsulfonyl)-1-(N,N-diethylcarbamoyl)-1,2,4-triazole] | [empty]
C=C(C)CC(F)(F)S(=O)(=O)c1ncn(C(=O)N(CC)CC)n1 [Example 18] | [empty]

These compounds were tested on rice (ORYSA) (assay: Selectivity test, PPI, warm season crop). Details: Oryza sativa; PPI application, 10 g/ha; read-out: Percent inhibition ORYSA.
Format: in vivo, Oryza sativa
Protocol: (§2) A pre-prepared topsoil mixture (described above) was placed in a pot and compacted to a depth of 1.0 to 1.25 cm from the top of the pot. Seeds of each of several monocotyledonous and dicotyledonous annual plant species were placed on top of the soil. A sufficient quantity of soil to cover the seeds and level fill the pot was weighed into an open container. A known amount of the test compound was dissolved or suspended in an organic solvent and applied by spraying to this cover soil. The cover soil was thoroughly mixed to distribute the test compound throughout the cover soil, and was then applied as a cover layer over the seeds. Untreated soil was used as a cover layer for control pots. After treatment the plants were placed in a greenhouse where they received 0.64 cm of overhead irrigation. All subsequent watering consisted of a light overhead mist and/or subirrigation as needed for germination and growth. Tables 9 and 10 below relate to warm season plant species which were placed after pre-emergence treatment in a greenhouse with a 30/21° C. day/night temperature regime. Tables 11 and 12 below relates to cool season plant species placed after pre-emergence treatment in a greenhouse or growth chamber with an 18/13° C. day/night temperature regime. Only the compounds of Examples 1, 6, 8, 11, 13 and 15-20 were included in PPI tests.
(§3) Approximately 14 days after planting and treating, the plants were observed and herbicidal efficacy recorded as percent inhibition by comparison with untreated plants.
Additional pre-emergence and PPI tests were conducted by the procedures described above, on warm and cool season weed species in the presence of crop species, to assess herbicidal selectivity. Crop species included in warm season tests were corn (Zea mays, ZEAMX), rice (Oryza sativa, ORYSA) and soybean (Glycine max, GLYMX). Crop species included in cool season tests were wheat (Triticum aestivum, TRZAW), barley (Hordeunm vulgare, HORVX) and oilseed rape (Brassica napus, BRSNS).
Tables 15 and 16 relate to pre-emergence and PPI tests respectively on warm season species. Table 17 relates to pre-emergence tests on cool season species.

Structure (SMILES) | inhibition at 10 g/ha
CCN(CC)C(=O)n1cnc(S(=O)(=O)C(F)(F)Br)n1 [Example 1, 3-(bromodifluoromethylsulfonyl)-1-(N,N-diethylcarbamoyl)-1,2,4-triazole] | 0%
C=C(C)CC(F)(F)S(=O)(=O)c1ncn(C(=O)N(CC)CC)n1 [Example 18] | 0%

Same assay, conditions: Oryza sativa; PPI application, 30 g/ha; read-out: Percent inhibition ORYSA

Structure (SMILES) | inhibition at 30 g/ha
CCN(CC)C(=O)n1cnc(S(=O)(=O)C(F)(F)Br)n1 [Example 1, 3-(bromodifluoromethylsulfonyl)-1-(N,N-diethylcarbamoyl)-1,2,4-triazole] | 0%
C=C(C)CC(F)(F)S(=O)(=O)c1ncn(C(=O)N(CC)CC)n1 [Example 18] | 0%

Same assay, conditions: Oryza sativa; PPI application, 100 g/ha; read-out: Percent inhibition ORYSA

Structure (SMILES) | inhibition at 100 g/ha
CCN(CC)C(=O)n1cnc(S(=O)(=O)C(F)(F)Br)n1 [Example 1, 3-(bromodifluoromethylsulfonyl)-1-(N,N-diethylcarbamoyl)-1,2,4-triazole] | 40%
C=C(C)CC(F)(F)S(=O)(=O)c1ncn(C(=O)N(CC)CC)n1 [Example 18] | 0%

Same assay, conditions: Oryza sativa; PPI application, 300 g/ha; read-out: Percent inhibition ORYSA

Structure (SMILES) | inhibition at 300 g/ha
CCN(CC)C(=O)n1cnc(S(=O)(=O)C(F)(F)Br)n1 [Example 1, 3-(bromodifluoromethylsulfonyl)-1-(N,N-diethylcarbamoyl)-1,2,4-triazole] | 60%
C=C(C)CC(F)(F)S(=O)(=O)c1ncn(C(=O)N(CC)CC)n1 [Example 18] | 15%

Same assay, conditions: Oryza sativa; PPI application, 900 g/ha; read-out: Percent inhibition ORYSA

Structure (SMILES) | inhibition at 900 g/ha
CCN(CC)C(=O)n1cnc(S(=O)(=O)C(F)(F)Br)n1 [Example 1, 3-(bromodifluoromethylsulfonyl)-1-(N,N-diethylcarbamoyl)-1,2,4-triazole] | 90%
C=C(C)CC(F)(F)S(=O)(=O)c1ncn(C(=O)N(CC)CC)n1 [Example 18] | 10%

The compounds below were run on SINAR (wild mustard) (assay: Pre-emergence herbicidal activity, cool season). Details: lowest tested rate with 80% or greater inhibition; rates 300, 100, 30, 10 g/ha; about 14 days.
Format: in vivo, Sinapis arvensis
Outline: as §1

Structure (SMILES) | Pre-emergence activity GR80, SINAR
CCN(CC)C(=O)n1cnc(S(=O)(=O)C(F)(F)Br)n1 [Example 1, 3-(bromodifluoromethylsulfonyl)-1-(N,N-diethylcarbamoyl)-1,2,4-triazole] | 100 g/ha
C=C(C)CC(F)(F)S(=O)(=O)c1ncn(C(=O)N(CC)CC)n1 [Example 18] | 300 g/ha

Each compound was assayed on DATST (jimsonweed) (assay: Pre-plant incorporated (PPI) herbicidal activity, warm season). Details: Datura stramonium; PPI application, 10 g/ha; read-out: Percent inhibition DATST.
Format: in vivo, Datura stramonium
Protocol: In another set of tests, the pre-plant incorporated (PPI) activity of compounds of this invention was evaluated on the same species as for the pre-emergence tests described above. In the PPI tests the following procedure, designed to simulate PPI application, was used.
as §2, §3

Structure (SMILES) | inhibition at 10 g/ha
CCN(CC)C(=O)n1cnc(S(=O)(=O)C(F)(F)Br)n1 [Example 1, 3-(bromodifluoromethylsulfonyl)-1-(N,N-diethylcarbamoyl)-1,2,4-triazole] | 0%
C=C(C)CC(F)(F)S(=O)(=O)c1ncn(C(=O)N(CC)CC)n1 [Example 18] | 0%

Same assay, conditions: Datura stramonium; PPI application, 30 g/ha; read-out: Percent inhibition DATST

Structure (SMILES) | inhibition at 30 g/ha
CCN(CC)C(=O)n1cnc(S(=O)(=O)C(F)(F)Br)n1 [Example 1, 3-(bromodifluoromethylsulfonyl)-1-(N,N-diethylcarbamoyl)-1,2,4-triazole] | 0%
C=C(C)CC(F)(F)S(=O)(=O)c1ncn(C(=O)N(CC)CC)n1 [Example 18] | 0%

Same assay, conditions: Datura stramonium; PPI application, 100 g/ha; read-out: Percent inhibition DATST

Structure (SMILES) | inhibition at 100 g/ha
CCN(CC)C(=O)n1cnc(S(=O)(=O)C(F)(F)Br)n1 [Example 1, 3-(bromodifluoromethylsulfonyl)-1-(N,N-diethylcarbamoyl)-1,2,4-triazole] | 0%
C=C(C)CC(F)(F)S(=O)(=O)c1ncn(C(=O)N(CC)CC)n1 [Example 18] | 0%

Same assay, conditions: Datura stramonium; PPI application, 300 g/ha; read-out: Percent inhibition DATST

Structure (SMILES) | inhibition at 300 g/ha
CCN(CC)C(=O)n1cnc(S(=O)(=O)C(F)(F)Br)n1 [Example 1, 3-(bromodifluoromethylsulfonyl)-1-(N,N-diethylcarbamoyl)-1,2,4-triazole] | 40%
C=C(C)CC(F)(F)S(=O)(=O)c1ncn(C(=O)N(CC)CC)n1 [Example 18] | 60%

Same assay, conditions: Datura stramonium; PPI application, 900 g/ha; read-out: Percent inhibition DATST

Structure (SMILES) | inhibition at 900 g/ha
CCN(CC)C(=O)n1cnc(S(=O)(=O)C(F)(F)Br)n1 [Example 1, 3-(bromodifluoromethylsulfonyl)-1-(N,N-diethylcarbamoyl)-1,2,4-triazole] | 95%
C=C(C)CC(F)(F)S(=O)(=O)c1ncn(C(=O)N(CC)CC)n1 [Example 18] | 100%

Same assay, conditions: pre-plant incorporated; GR80 = lowest tested rate with 80% or greater inhibition; approx. 14 days after treating; 30/21° C.

Structure (SMILES) | PPI activity (GR80) DATST
CCN(CC)C(=O)n1cnc(S(=O)(=O)C(F)(F)Br)n1 [Example 1, 3-(bromodifluoromethylsulfonyl)-1-(N,N-diethylcarbamoyl)-1,2,4-triazole] | 30 g/ha
C=C(C)CC(F)(F)S(=O)(=O)c1ncn(C(=O)N(CC)CC)n1 [Example 18] | 300 g/ha
